Experimental findings from patent US20230036051A1, “C[…] STABILITY” (priority 2021, published 2023) are described below.

Structures are written as SMILES.

The data set can be described thus: Storage stability of THC in ground cannabis flower, non-accelerated storage conditions. It counts as physicochemical. Conditions: loss of THC content; positive control, amount not given. The protocol: After analyzing initial cannabinoid content, an amount of terpene blend 1 was added to 3.5 (±0.05) g of ground flower (1, 2, or 3%, by weight of the dried cannabis) was applied to the product and stored in an air-tight container protected from light. All experiments were performed in triplicate. The testing conditions included: (1) Non-Accelerated Storage Conditions without exogenous terpenes “Control”; (2) Accelerated Conditions (+3.0% by weight hydrogen peroxide, initially, and refreshed each week) without exogenous terpenes, and (3) Accelerated Conditions with exogenous terpenes “H2O2+Terpene” (Blend 1). (FIG. 2). Butylated hydroxytoluene (BHT), a preservative used in food, known to prevent radical-mediated oxidation was employed as a positive control. Each container was opened twice/week and stirred, simulating usual conditions for access of medicinal cannabis. The cannabinoid content was analyzed after 24 and 81 days of storage.
The stabilizing effect was observed after 81 days (TABLE 2) and also between days 24 and 81 (TABLE 3).

`Cc1cc(C(C)(C)C)c(O)c(C(C)(C)C)c1` [BHT, Butylated hydroxytoluene]: the “Relative % Loss 0 to 81 Days” value amounted to 7.90% and the “Relative % Loss 24 to 81 Days” value was determined as 18.65%.
